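Interpolation was linear, between the two tested concentrations surrounding the appropriate level; five concentrations were tested over 48 hours in 96-well plates. GI50 = concentration required for 50% inhibition of growth. TGI: total growth inhibition.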
Legend:
Assay in all cases: NCI anticancer screen, dose series, 48 h
SR leukemia = tested on: SR leukemia
SK-OV-3 ovarian = tested on: SK-OV-3 ovarian
SK-MEL-2 melanoma = tested on: SK-MEL-2 melanoma
NCI/ADR-RES ovarian = tested on: NCI/ADR-RES ovarian
T-47D breast = tested on: T-47D breast
MDA-MB-231 breast = tested on: MDA-MB-231 breast
HCC-2998 colon = tested on: HCC-2998 colon
NCI-H522 lung = tested on: NCI-H522 lung
HOP-92 NSCLC = tested on: HOP-92 NSCLC
A498 renal = tested on: A498 renal
HL-60(TB) leukemia = tested on: HL-60(TB) leukemia
CCRF-CEM leukemia = tested on: CCRF-CEM leukemia
MOLT-4 leukemia = tested on: MOLT-4 leukemia
MALME-3M melanoma = tested on: MALME-3M melanoma
BT-549 breast = tested on: BT-549 breast
M14 melanoma = tested on: M14 melanoma
NCI-H460 lung = tested on: NCI-H460 lung
HCT-116 colon = tested on: HCT-116 colon
OVCAR-8 ovarian = tested on: OVCAR-8 ovarian
KM12 colon = tested on: KM12 colon
OVCAR-5 ovarian = tested on: OVCAR-5 ovarian
HS 578T breast = tested on: HS 578T breast
SNB-75 CNS = tested on: SNB-75 CNS
PC-3 prostate = tested on: PC-3 prostate
A549 NSCLC = tested on: A549 NSCLC
SF-295 CNS = tested on: SF-295 CNS
UO-31 renal = tested on: UO-31 renal
OVCAR-3 ovarian = tested on: OVCAR-3 ovarian
CAKI-1 renal = tested on: CAKI-1 renal
EKVX NSCLC = tested on: EKVX NSCLC
SF-539 CNS = tested on: SF-539 CNS
HOP-62 NSCLC = tested on: HOP-62 NSCLC
TK-10 renal = tested on: TK-10 renal
OVCAR-4 ovarian = tested on: OVCAR-4 ovarian
ACHN renal = tested on: ACHN renal
LOX IMVI melanoma = tested on: LOX IMVI melanoma
COLO 205 colon = tested on: COLO 205 colon
IGROV1 ovarian = tested on: IGROV1 ovarian
HT29 colon = tested on: HT29 colon
NCI-H23 lung = tested on: NCI-H23 lung
HCT-15 colon = tested on: HCT-15 colon
SK-MEL-5 melanoma = tested on: SK-MEL-5 melanoma
UACC-62 melanoma = tested on: UACC-62 melanoma
MCF7 breast = tested on: MCF7 breast
MDA-MB-435 = tested on: MDA-MB-435
SK-MEL-28 melanoma = tested on: SK-MEL-28 melanoma
SNB-19 CNS = tested on: SNB-19 CNS
UACC-257 melanoma = tested on: UACC-257 melanoma
RPMI-8226 leukemia = tested on: RPMI-8226 leukemia
NCI-H226 lung = tested on: NCI-H226 lung
SN12C renal = tested on: SN12C renal
RXF 393 renal = tested on: RXF 393 renal
786-0 renal = tested on: 786-0 renal
SW-620 colon = tested on: SW-620 colon
DU-145 prostate = tested on: DU-145 prostate
SF-268 CNS = tested on: SF-268 CNS
K-562 leukemia = tested on: K-562 leukemia
MDA-MB-468 breast = tested on: MDA-MB-468 breast
U251 CNS = tested on: U251 CNS

CN(C)CCOc1ccc(C(=O)C2[C@H](c3ccc(Cl)cc3)[C@@H](c3ccccc3)NC23C(=O)Nc2ccc(Cl)cc23)cc1 (stereo partly drawn)
GI50 (SR leukemia): 13.7 µM
TGI (SR leukemia): 29.7 µM
GI50 (SK-OV-3 ovarian): 14.3 µM
TGI (SK-OV-3 ovarian): 27.7 µM
GI50 (SK-MEL-2 melanoma): 15.9 µM
TGI (SK-MEL-2 melanoma): 30 µM
GI50 (NCI/ADR-RES ovarian): 16.6 µM
TGI (NCI/ADR-RES ovarian): 31.4 µM
GI50 (T-47D breast): 14.6 µM
TGI (T-47D breast): 30 µM
GI50 (MDA-MB-231 breast): 15.1 µM
TGI (MDA-MB-231 breast): 28.7 µM
GI50 (HCC-2998 colon): 13.4 µM
TGI (HCC-2998 colon): 26.9 µM
GI50 (NCI-H522 lung): 14.8 µM
TGI (NCI-H522 lung): 29.1 µM
GI50 (HOP-92 NSCLC): 8.92 µM
TGI (HOP-92 NSCLC): 22.2 µM
GI50 (A498 renal): 14.6 µM
TGI (A498 renal): 28.1 µM
GI50 (HL-60(TB) leukemia): 11 µM
TGI (HL-60(TB) leukemia): 28.1 µM
GI50 (CCRF-CEM leukemia): 16.8 µM
TGI (CCRF-CEM leukemia): 34.8 µM
GI50 (MOLT-4 leukemia): 12.6 µM
TGI (MOLT-4 leukemia): 29.6 µM
GI50 (MALME-3M melanoma): 14.7 µM
TGI (MALME-3M melanoma): 29.7 µM
GI50 (BT-549 breast): 14.4 µM
TGI (BT-549 breast): 27.7 µM
GI50 (M14 melanoma): 16 µM
TGI (M14 melanoma): 29.8 µM
GI50 (NCI-H460 lung): 13 µM
TGI (NCI-H460 lung): 26.3 µM
GI50 (HCT-116 colon): 12.8 µM
TGI (HCT-116 colon): 26 µM
GI50 (OVCAR-8 ovarian): 16.3 µM
TGI (OVCAR-8 ovarian): 31.5 µM
GI50 (KM12 colon): 13.6 µM
TGI (KM12 colon): 29 µM
GI50 (OVCAR-5 ovarian): 14.6 µM
TGI (OVCAR-5 ovarian): 27.8 µM
GI50 (HS 578T breast): 12.5 µM
TGI (HS 578T breast): 34.2 µM
GI50 (SNB-75 CNS): 10.4 µM
TGI (SNB-75 CNS): 24.7 µM
GI50 (PC-3 prostate): 15.5 µM
TGI (PC-3 prostate): 31.7 µM
GI50 (A549 NSCLC): 14.3 µM
TGI (A549 NSCLC): 28.9 µM
GI50 (SF-295 CNS): 16.3 µM
TGI (SF-295 CNS): 30.5 µM
GI50 (UO-31 renal): 12.8 µM
TGI (UO-31 renal): 25.5 µM
GI50 (OVCAR-3 ovarian): 14.2 µM
TGI (OVCAR-3 ovarian): 29.9 µM
GI50 (CAKI-1 renal): 13.4 µM
TGI (CAKI-1 renal): 26.3 µM
GI50 (EKVX NSCLC): 14.3 µM
TGI (EKVX NSCLC): 28.1 µM
GI50 (SF-539 CNS): 14.7 µM
TGI (SF-539 CNS): 27.8 µM
GI50 (HOP-62 NSCLC): 12.7 µM
TGI (HOP-62 NSCLC): 26 µM
GI50 (TK-10 renal): 14 µM
TGI (TK-10 renal): 27.3 µM
GI50 (OVCAR-4 ovarian): 14.4 µM
TGI (OVCAR-4 ovarian): 29 µM
GI50 (ACHN renal): 14.5 µM
TGI (ACHN renal): 27.6 µM
GI50 (LOX IMVI melanoma): 13.5 µM
TGI (LOX IMVI melanoma): 26.8 µM
GI50 (COLO 205 colon): 15.6 µM
TGI (COLO 205 colon): 29.3 µM
GI50 (IGROV1 ovarian): 14.3 µM
TGI (IGROV1 ovarian): 28.2 µM
GI50 (HT29 colon): 14.4 µM
TGI (HT29 colon): 28.1 µM
GI50 (NCI-H23 lung): 16.4 µM
TGI (NCI-H23 lung): 31 µM
GI50 (HCT-15 colon): 15.2 µM
TGI (HCT-15 colon): 28.8 µM
GI50 (SK-MEL-5 melanoma): 15.8 µM
TGI (SK-MEL-5 melanoma): 29.2 µM
GI50 (UACC-62 melanoma): 15.1 µM
TGI (UACC-62 melanoma): 28.7 µM
GI50 (MCF7 breast): 5.71 µM
TGI (MCF7 breast): 18.8 µM
GI50 (MDA-MB-435): 14.5 µM
TGI (MDA-MB-435): 28.2 µM
GI50 (SK-MEL-28 melanoma): 16.2 µM
TGI (SK-MEL-28 melanoma): 29.9 µM
GI50 (SNB-19 CNS): 15.6 µM
TGI (SNB-19 CNS): 29.2 µM
GI50 (UACC-257 melanoma): 15.7 µM
TGI (UACC-257 melanoma): 30.6 µM
GI50 (RPMI-8226 leukemia): 18.6 µM
TGI (RPMI-8226 leukemia): 43.4 µM
GI50 (NCI-H226 lung): 15.3 µM
TGI (NCI-H226 lung): 33.1 µM
GI50 (SN12C renal): 13.5 µM
TGI (SN12C renal): 26.7 µM
GI50 (RXF 393 renal): 10.8 µM
TGI (RXF 393 renal): 23.6 µM
GI50 (786-0 renal): 15 µM
TGI (786-0 renal): 29.2 µM
GI50 (SW-620 colon): 12.3 µM
TGI (SW-620 colon): 25.3 µM
GI50 (DU-145 prostate): 15.9 µM
TGI (DU-145 prostate): 30.2 µM
GI50 (SF-268 CNS): 15 µM
TGI (SF-268 CNS): 33.5 µM
GI50 (K-562 leukemia): 13 µM
TGI (K-562 leukemia): 34.2 µM
GI50 (MDA-MB-468 breast): 8.98 µM
TGI (MDA-MB-468 breast): 22.3 µM
GI50 (U251 CNS): 15.3 µM
TGI (U251 CNS): 29.3 µM
